Test results: patent EP0433759A1, “4-Substituted alkyl carbapenem antibiotics” (Bristol-Myers Squibb Company, priority 1989, dated 1991)
Converted amounts (≈) assume the structure as drawn. Where two headings read alike, the source gives them in different places.

Legend:
[1] = Chemical stability in aqueous solution (half-life); format: physicochemical; details: 37°C, 10^-4 M, pH 7.4, aqueous solution; read-out: Half-life (T 1/2) (converted)
Experimental: These values were determined by the method of Woodward et al, J. Am. Chem. Soc., 102, 2042 (1980)

[2] = test system: Pseudomonas aeruginosa, A9843; assay: In vitro antibacterial activity (MIC), serial 2-fold dilution; format: cell-based; details: read-out: Antibacterial Activity MIC P. aer.
Experimental: (§1) In vitro antibacterial activity was determined by serial 2-fold dilution of the compound in Mueller-Hinton agar and inoculation of the agar surface or broth with an appropriately diluted 18-24 h broth culture.

[3] = test system: Escherichia coli, A15119; assay: as above; format: cell-based; details: read-out: Antibacterial Activity MIC E. coli
Experimental: as §1

[4] = test system: Streptococcus pneumoniae, A9585; assay: as above; format: cell-based; details: read-out: Antibacterial Activity MIC S. pn.
Experimental: as §1

[5] = Pseudomonas aeruginosa A9843, Mueller-Hinton, 37°C, 17 h
[6] = Escherichia coli A15119, Mueller-Hinton, 37°C, 17 h
[7] = Streptococcus pneumoniae A9585, Mueller-Hinton, 37°C, 17 h

half-life at 100 µM [1] [h] | MIC [2, 5] [µg/mL] | MIC [3, 6] [µg/mL] | MIC [4, 7] [µg/mL] | SMILES | MIC ([2]; Pseudomonas aeruginosa, A9843, 17 h) [µg/mL] | MIC ([3]; Escherichia coli, A15119, 17 h) [µg/mL] | MIC ([4]; Streptococcus pneumoniae, A9585, 17 h) [µg/mL]
3.2 | 2 (≈ 5.5 µM) | 0.016 (≈ 0.044 µM) | 0.13 (≈ 0.358 µM) | C[C@@H](O)[C@H]1C(=O)N2C(C(=O)O)=C(SCc3ccccn3)[C@H](CCN)[C@H]12 [Example 3, (4R,5S,6S)-4-(2"-Aminoethyl)-6-[(1'R)-1'-hydroxyethyl]-3-[(pyridin-2-yl)methylthio]-7-oxo-1-azabicyclo-[3.2.0]-hept-2-ene-2-carboxylic acid] |  |  | 
117 | 1 (≈ 2.63 µM) | 0.004 (≈ 0.0105 µM) | 0.06 (≈ 0.158 µM) | C[C@@H](O)[C@H]1C(=O)N2C(C(=O)O)=C(SCCC#N)[C@H](CCCCNC=N)[C@H]12 [Example 19, (4R,5S,6S)-3-[(2-Cyanoethyl)thio]-4-[4"-(N-formimidoyl)-amino-butyl]-6-[(1'R)-1'-hydroxyethyl]-7-oxo-1 - azabicyclo-[3.2.0]hept-2-ene-2-carboxylic acid] |  |  | 
3.5 | 1 (≈ 2.75 µM) | 0.016 (≈ 0.044 µM) | 0.13 (≈ 0.358 µM) | C[C@@H](O)[C@H]1C(=O)N2C(C(=O)O)=C(SCc3cccnc3)[C@H](CCN)[C@H]12 [Example 24, (4R,5S,6S)-4-(2"-Aminoethyl)-6-[(1'R)-1'-hydroxyethyl]-3-[(pyridin-3-yl)methyithio]-7-oxo-1-azabicyclo[3.2.0]-hept-2-ene-2-carboxylic acid] |  |  | 
76 | 0.25 (≈ 0.699 µM) | 0.004 (≈ 0.0112 µM) | 0.25 (≈ 0.699 µM) | C[C@@H](O)[C@H]1C(=O)N2C(C(=O)O)=C(SCCO)[C@H](CCCNC=N)[C@H]12 [Example 32, (4R,5S,6S)-4-[3"-[N-Formimidoyl)aminopropyl]-6-[(1'R)-1'-hydroxyethyl]-3-[(2-hydroxyethyl)thio]-7-oxo-1-azabicyclo [3.2.0]hept-2-ene-2-carboxylic acid] |  |  | 
3.8 | 0.25 (≈ 0.768 µM) | 0.008 (≈ 0.0246 µM) | 0.13 (≈ 0.4 µM) | C[C@@H](O)[C@H]1C(=O)N2C(C(=O)O)=C(SCCC#N)[C@H](CCN)[C@H]12 [Example 36, (4R,5S,6S)-4-(2"-Aminoethyl)-3-[(2-cyanoethyl)thio]-6-[(1'R)-1'-hydroxyethyl]-7-oxo-1-azabicyclo[3.2.0]hept-2-ene-2-carboxylic acid] |  |  | 
32.5 | 1 (≈ 2.42 µM) | 0.008 (≈ 0.0194 µM) | 0.06 (≈ 0.145 µM) | C[C@@H](O)[C@H]1C(=O)N2C(C(=O)O)=C(SCc3csnn3)[C@H](CCNC(=N)N)[C@H]12 [Example 40, (4R,5S.6S)-4-(2"-Guanidinoethyl)-6-[(1'R)-1'-hydroxyethyl]-3-[(1,2.3-thiadiazol-4-yl)methyithio]-7-oxo-1-azabicyclo-[3.2.0]hept-2-ene-2-carboxylic acid] |  |  | 
 | 8 (≈ 20.2 µM) | 0.125 (≈ 0.315 µM) | 0.125 (≈ 0.315 µM) | C[C@H](N)C(=O)NCC[C@H]1C(SCCC#N)=C(C(=O)O)N2C(=O)[C@H]([C@@H](C)O)[C@@H]12 [Example 145, (4R,5S,6S)-6-[(\1'R)-1'-Hydroxyethyl]-3-[(2-cyanoethyl)-thio]-4-[2"-(L-alanyl)-aminoethyl]-7-oxo-1-azabicyclo-[3.2.0]hept-2-ene-2-carboxylic acid] |  |  | 
 | 128 (≈ 274 µM) | 0.125 (≈ 0.267 µM) | 0.25 (≈ 0.535 µM) | C[C@H](N)C(=O)N[C@@H](C)C(=O)NCC[C@H]1C(SCCC#N)=C(C(=O)O)N2C(=O)[C@H]([C@@H](C)O)[C@@H]12 [Example 146, (4R,5S,6S)-6-[(1'R)-1'-Hydroxyethyl]-3-[(2-cyanoethyl)-thio]-4-[2"-(L-alanyl-L-alanyl)-aminoethyl]-7-oxo-1-azabicyclo-[3.2.0]hept-2-ene-2-carboxylic acid] |  |  | 
 |  |  |  | C[C@@H](O)[C@H]1C(=O)N2C(C(=O)O)=C(SCCN=CN)C[C@H]12 [Imipenem, imipenem, reference compound] | 2 (≈ 6.68 µM) | 0.03 (≈ 0.1 µM) | 0.002 (≈ 0.00668 µM)
